For data set [1], the system named is macrophage like cell line U937. As to the kind of experiment: Platelet binding to the macrophage like cell line U937 (Experiment E). As to conditions: 2% PEG-400, 5° C. overnight. In kind it is cell-based, human. On the procedure:
U937 is a cell line derived from a patient with Acute Myelo-Monocytic Leukemia. […] In this binding experiment 5 day old platelets from the blood bank are held in a standard storage media referred to as ACD on a flat-bed shaker under standard conditions of rotation. ‘ACD’ contains […], Sodium Citrate, and Dextrose. These platelets were split into two conditions, control and 2%/0 PEG-400, in a 12 well plate format with a final volume of 100 ul per well. All wells were incubated overnight at 5° C. All wells where then stained with fluorescein Diacetate (Sigma product F7378). This agent was protected from light and 1 mg was dissolved in 10 ml acetone and stored at −70° C. FDA was diluted […] in PBS immediately prior to use (Miyamoto el al., 2000.) All platelet wells received 2.5 ug final per well of fluorescein diacetate (FA) contained in 50 ul PBS. After 1 hr at room temp a further 100 ul of PBS was added and the 12 well plates were centrifuged at 3000 g for 20 min at RT. 150 ul excess fluid was carefully removed from all wells and discarded. Platelets were gently suspended. […] Wells were examined and photographed with an inverted fluorescence microscope. […]
Control conditions had standard 75 ul of ACD suspended platelets, plus 25 μl PBS in the control wells. […] Wells were examined with an inverted fluorescence microscope.

For data set [2], the system named is platelets. As to the kind of experiment: Platelet degranulation by anti-von Willebrand factor immunofluorescent staining (Experiment D). In kind it is cell-based, human. The following applies: 1.5% PEG-400, 5° C., 8 days, rotation. On the procedure:
Functional, non-degranulated, platelets should retain vWF at high concentrations in their alpha granules. To study the effect of PEG on gradual loss or preservation a direct fluorescent antibody immunoflorescent staining protocol was developed. Slides were air dried for 5 min and immersed in 0.5% fresh paraformaldehyde in 10% PBS pH 7.3 for 10 min. Slides were soaked for 2 min in PBS with 5 changes. Subsequently excess PBS was drained and slides immersed for 2 min in ice cold dry acetone. Again, slides were drained and excess acetone was removed with 5 PBS washings of 2 min each. Slides were then immersed in 0.5% filter sterilized BSA in PBS and allowed to block overnight at 4° C. After draining excess block solution, 50 ul of primary antibody (Polyclonal rabbit anti-vWF-PB9062, Boster Biological Technology, Pleasanton, Calif.) at 5 ng/ml was applied immediately over the platelet spot and incubated in a humidity chamber for 4 hr at 4° C. Slides were washed with 5 changes of 0.5% BSA/PBS for 5 min each. Excess fluid was again removed and FITC labeled goatd anti-rabbit, Sigma F0382, was added 50 ug/ml in 0.5% BSA/PBS for 3 hr. […]
von Willebrand Factor (vWF) is a major component of platelet alpha granules. […] No post photographic image adjustments were made to images analyzed.

The conditions of data set [3]: primates, for 11 weeks; cited from earlier work.

“Also recorded” adds a separate entry of the source.

As for Polyethylene glycol [PEG-400], the “adsorption of cold stored platelets to U937 cells” value in data set [1] was “substantially block adsorption of cold stored platelets to macrophage like cells”; in data set [1] (listed as PEG), “only a few attached strongly fluorescent platelets”. Also, the “vWF degranulation at 5° C.” value in data set [2] is “sufficient to prevent vWG degranulation; also recorded: prevented vWG degranulation”. Besides, the tolerated level in data set [3] is recorded as 0.4 % of body weight.

(Values after patent US10897891B2, “Compositions and methods for prolonged cell storage” (Board of Regents, The University of Texas System, priority 2015, dated 2021).)
